# Data taken from patent US20150335678A1, “METHOD OF ACTIVATING STEM CELLS IN AN ANIMAL AND THE USE OF CHLORINE DIOXIDE FOR PREPARING MEDICINES FOR ACTIVATING STEM CELLS IN AN ANIMAL” (priority 2012, published 2015).
# Key:
# Ankylosing spondylitis = Ankylosing spondylitis patients: BASRI, Harris hip score, BASDAI, BASFI, ESR, CRP (Example 6); details: for BASDAI: before treatment 6.4 ± 1.8; for BASFI: before treatment 7.3 ± 1.6; for CRP: before treatment 17.6 ± 4.2; for ESR: before treatment 29.4 ± 9.8; for BASRI Staging: before treatment 45 ± 5; for Harris hip score: before treatment 82 ± 6
# Procedure: The first solution was a mixed solution made of sodium chlorite with the concentration of 7.47% and sodium chloride with the concentration of 1.59% with deionized water; the second solution was made of citric acid with the concentration of 16.7% with deionized water. Same volume of solutions were taken out from different vessels with different volume and put into the suitable glass or plastic cups prepared. Allow the solution to mix for 3-5 minutes and then filter the solution with 0.22 μm filter membrane of double-deck, dimethyl sulfoxide was added in the ratio of 1:1. The solution was smeared over the region immediately and repeatedly, once a day for consecutive three weeks. The administration was stopped for a week, and then began the treatment for consecutive three weeks, stop the drug for a week. The medicine was repeated for four cycles. Clean and disinfect the area before administration and conduct local anesthetic 30 minutes before operation. To use corresponding amount of solution according to different regions, varying from 1-10 ml/100 cm^2.
# The subjects consisted of 8 male and 4 female AS patients aged from 18 to 40 years old (average age: 26 years old).
# Mean index: the index of X ray of the hip joints:
# Stage I: suspicious change, local joint space may become narrower, 25 points;
# Stage II: mildly abnormal, joint space becomes narrower obviously, the space>2 mm, 50 points;
# Stage III: moderately abnormal, joint space becomes narrow, and the space <2 mm or the local joint space disappears, articular surfaces <2 mm, 75 points;
# Stage IV: severe abnormal, bone deformation, articular surfaces >2 cm, 100 points.
# If two of the three symptoms, namely, erosion and damage, syndesmophyte formation, arthrokatadysis appear during stage I and II, it should increase a level accordingly. BASRI evaluation was given according to different levels. Harris score: full score is 100 points, including pain degree of hip joints (44 points), function of hip joints (47 points), degree of lower limb malformation (4 points), range of activity of hip joints (5 points). Corresponding scores were given according to degrees. BASFI, BASDAI, ESR, CRP were applied in evaluating disease activity and function.
# [1] = system: postoperative complications of lung cancer; test: Postoperative complications of lung cancer (Example 12); type: in vivo, human; details: 15 patients
# Procedure: The subjects consisted of 30 lung cancer patients of stage I, II III who had operations on lung cancer just now. The subjects were randomly assigned to treatment group and control group with 15 patients respectively.
# […] acid aqueous solution with a ph value of 3 was made by citric acid and deionized water. 500 ml aqueous solution of 30% was made with deionized water and sodium chlorite, 500 ml aqueous solution of 50% was made with deionized water and citric acid. To mix the above solutions in a conical beaker of 2 L capacity and then put them in the prepared acid aqueous solution by a plastic tube with bottle stopper. The activating agent of stem cells comprising chlorine dioxide was made by bubbling chlorine dioxide in the acid aqueous solution for 40 minutes and the solution was contained in 150 plastic bottles with 100 ml capacity and stored in the fridge.
# Each patient in treatment group received 10 bottles of the solution. Open the plastic bottle cap and do alternate nostril breathing for 2-10 minutes on day 2 after the operation with a bottle a day for three times, then cover the bottleneck once finished. No special nursing means were applied in control group, then observe the complications a month after the operation.
# [2] = system: VE cadherin-positive mononuclear cells; test: VE cadherin-positive mononuclear cells in peripheral blood of lower limb DVT patients, flow cytometry; type: in vivo, human; details: before administration 0.44 ± 0.70, diluted solution 10 ml/body/day femoral artery puncture, 14 days
# Text: The subjects consisted of 14 male and 6 female lower limb DVT patients with the unilateral limb suffer from the illness, aged from 59 to 76 years old (average age: 67.2 years old). The purpose of the clinical test was explained to all subjects and their consent was obtained before conducting the clinical test.
# The first solution was a mixed solution made of sodium chlorite with the concentration of 7.47% and sodium chloride with the concentration of 1.59% with deionized water; the second solution was made of citric acid with the concentration of 16.7% with deionized water. Same volume of solutions were taken out from different vessels with different volumes and mixed up. […]
# Five ml of peripheral blood was collected from the median cubital vein of the forearm of each patient using low molecular weight heparin anticoagulant before administration (before initial administration) and on day 7 and 14 after administration, and the collected blood was immediately stored at 4° C. and measured within 6 hours after collection. […]
# VE Cadherin-positive mononuclear cells were isolated by immunofluorescent stain using flow cytometry. […] Next, VE cadherin-positive mononuclear cells were isolated and counted by flow cytometry. The ratio (%) of VE cadherin-positive mononuclear cells among the mononuclear cells was calculated according to the following formula. […]
# [3] = system: rat model of type II diabetes mellitus; test: Fasting blood-glucose in rat model of type II diabetes mellitus (Example 10); type: in vivo
# Procedure: The rat models of type II diabetes mellitus bought from Department of Medicine of Peking University were divided into group A and B randomly with 10 rats for each group. Group A was treatment group of activating agent of stem cells. Group B was control group of 0.9% sodium chloride of the same volume. The rats of group A were injected with 0.5 ml activating agent of stem cells at insulin injection site on day 0, same dosage of medicine were injected on day 7, day 14; The rats of group B were injected with 0.5 ml NS at hepatic artery at the same point-in-time, then calculate the blood sugar. The fasting blood-glucose of the rat model was checked on day 7, day 14, day 21 and day 28 respectively after the last injection. Table 20 is the results.
# [4] = 12 AS patients, topical with DMSO
# [5] = the sixth month, 12 AS patients, topical with DMSO
# [6] = the third month, 12 AS patients, topical with DMSO
smiles,measurement,setting,value
"[O][Cl+][O-] [chlorine dioxide solution, chlorine dioxide]",time until pain and itch during administration disappear completely,Ankylosing spondylitis; [4],after an hour
same,tolerance,Ankylosing spondylitis; [4],without local or systemic anaphylactic reaction
same,change of BASRI staging of the involved hip joints vs before administration,Ankylosing spondylitis; six months after administration,reduced a level
same,BASDAI,Ankylosing spondylitis; [5],3.0 ± 1.2
same,BASFI,Ankylosing spondylitis; [5],2.9 ± 1.1
same,CRP,Ankylosing spondylitis; [5],1.2 ± 0.6
same,ESR,Ankylosing spondylitis; [5],9.1 ± 6.8
same,BASRI Staging,Ankylosing spondylitis; [5],25 ± 8
same,Harris hip score,Ankylosing spondylitis; [5],32 ± 4
same,BASDAI,Ankylosing spondylitis; [6],3.6 ± 1.5
same,BASFI,Ankylosing spondylitis; [6],3.3 ± 1.4
same,CRP,Ankylosing spondylitis; [6],6.3 ± 3.5
same,ESR,Ankylosing spondylitis; [6],11.8 ± 7.6
same,BASRI Staging,"Ankylosing spondylitis; the third month, 12 AS patients, NaClO2 7.47% + citric acid 16.7% 1:1, DMSO 1:1, smeared once a day, three weeks on/one week off, four cycles",30 ± 6
same,Harris hip score,Ankylosing spondylitis; [6],49 ± 5
same,change of BASRI staging of the involved hip joints vs before administration,Ankylosing spondylitis; three months after administration,reduced half level
same,Serious complications (No.),"[1]; a month after lung cancer operation, ClO2 gas bubbled into pH 3 citric acid solution, nostril breathing 2-10 minutes three times a day, 10 bottles, control 4 (26.7%)",1
same,No complication (No.),"[1]; a month after operation, inhalation, control 5 (33.3%)",9
same,Minor complications (No.),"[1]; a month after operation, inhalation, control 6 (40%)",5
same,Serious complications (%),"[1]; a month after operation, inhalation, control 26.7%",6.7%
same,No complication (%),"[1]; a month after operation, inhalation, control 33.3%",60%
same,Minor complications (%),"[1]; a month after operation, inhalation, control 40%",33.3%
same,"VE Cadherin-Positive Mononuclear Cells (ratio among mononuclear cells, mean±SD)","[2]; Day 7 after administration, n=20",1.5 ± 1.11 %
same,"VE Cadherin-Positive Mononuclear Cells (ratio among mononuclear cells, mean±SD)","[2]; Day 14 after administration, n=15",1.91 ± 1.65 %
same,"MBG (fasting blood-glucose), ±SD","[3]; Day 7 after administration, Group A n=10, Day 0 17.3 ± 0.4, NS group 18.3 ± 2.4, NaClO2 4%/NaCl 1% + citric acid 8% 1:1, 0.5 ml injected day 0, 7, 14",9.3 ± 3.5 mmol/L
same,"MBG (fasting blood-glucose), ±SD","[3]; Day 14 after administration, Day 0 17.3 ± 0.4, NS group 17.2 ± 1.6, 0.5 ml injected day 0, 7, 14",4.3 ± 1.1 mmol/L
same,"MBG (fasting blood-glucose), ±SD","[3]; Day 28 after administration, Day 0 17.3 ± 0.4, NS group 17.9 ± 2.3, 0.5 ml injected day 0, 7, 14",3.1 ± 1.2 mmol/L
same,FBG levels of rats in treatment group,[3]; control group remains unchanged,become normal after 14 days
same,side effects,[3]; rat model of type II diabetes mellitus,few or no side effects
same,"MBG (fasting blood-glucose), ±SD","[3]; rat, in vivo",3.5 ± 1.3 mmol/L
